Entries after “also recorded” stand apart in the source; their conditions may differ. Like-named read-outs stand apart in the source and are kept apart here.
Legend:
male healthy subjects [1] = tested on: male healthy subjects; design: species or system human; conditions: in vivo
Method: (§1) Seventeen subjects contributed ECG data to the analysis dataset. The study was randomized single dose escalating phase I first-in-human study designed to investigate the safety and tolerability, and pharmacokinetics of ascending oral doses of ANAVEX 2-73 in male healthy subjects. It was double-blind and placebo-controlled within each dosage step—a two cohort study with alternating single dose escalation performed in male healthy subjects. Subjects were administered 10, 30, 40, 50, or 60 mg of ANAVEX 2-73 orally with a 4-week washout between doses. Sampling for drug and ECG was from predose to 48 hr. Note that Placebo-adjusted (delta-delta) change in QTcF is represented as ΔΔQTcF.
Subjects provided time-matched exposure-ECG data for analysis. For the exposure-QTc analysis, data obtained after the administration of doses greater than 1 mg were used. […] However, ECG data from the administration of the 1 mg dose were included in the categorical and outlier analysis.
(§2) Data analysis proceeded from data structure analysis in S-PLUS to linear/nonlinear mixed effects modeling in NONMEM to develop the exposure-QTc relationship for ANAVEX 2-73 and its active metabolite ANAVEX 19-144. The correction method used for QT interval was the Fridericia's correction. The bootstrap was used to determine the reliability/stability of the exposure-QTc models developed. This was necessary to determine if the modeling results obtained with data from the 17 subjects would be applicable to the population at large, given the sample size. Exposure-heart rate and exposure-change from baseline QTc, and exposure-placebo corrected QTc relationship models were developed for the elucidation of any exposure-QTc relationship.
In addition, categorical summaries of the ECG data were generated using the ICH E14 guidance-defined categories of QTc interval duration as well as change from baseline.
A protocol presented herein was a single ascending dose (SAD) phase I first-in-human study designed to investigate the safety and tolerability, and pharmacokinetics of ascending oral doses of ANAVEX 2-73 in male healthy subjects. The study was a randomized, double-blind, and placebo-controlled within each dosage step. It was a two cohort study with alternating single dose escalation performed in male healthy subjects. The subjects were divided into two cohorts of 8 subjects each—Cohort A (n=8), and Cohort B (n=8). However, 17 evaluable subjects were studied in a 8:9 ratio in cohorts A and B, respectively. The study comprised repeated treatment periods with at least 4 weeks of intermediary washout periods.
Per study protocol, triplicate 12-lead ECGs safety recordings were obtained at the following times: Day 1 at T0/pre-dose (3 baseline ECGs), T+0.25 h (15 min), T+0.5 h (30 min), T+1 h, T+2 h, T+4 h, T+8 h and T+12 h, on Day 2 at T+24 h, T+36 h, and on Day 3 at T+48 h. ECGs were recorded at each PK sampling time (i.e., 0.25, 0.5, 1, 2, 3, 4, 6, 8, 24, 36, and 48 hours after initiation of treatment). Thus, ECG recordings were time-matched with PK sampling.
ECG metrics evaluated included the heart rate (HR), the duration of QT interval, and the heart rate-corrected QT interval according to Fridericia's formula (QTcF). Change of QTcF from baseline (dQTcF), and placebo corrected QTcF (ΔΔQTcF) were generated from the data and used for the analysis.
Baseline ECG was defined as pre-dose baseline on each dosing occasion. Given the four weeks washout between dosing, the pre-dose baseline ECG was used as the baseline ECG for the particular dose/dosing occasion. A change from baseline variable for QTc interval (ΔQTcF) was calculated using pre-dose baseline.
ΔΔQTcF data was a single dose ascending study. As such not all subjects were administered placebo in each of the study periods. Only nine subjects were administered placebo in the course of the study. Consequently, it was not possible to make subject specific placebo correction. […]

[2] = phase I single ascending dose study, plasma concentrations of ANAVEX 2-73 and metabolite ANAVEX 19-144; format: in vivo, human; conditions: for plasma concentration of the labelled analyte: 1 mg ANAVEX 2-73 oral dose; for concentration at 24 h / Cmax: human, plasma; for concentration at 24 h: one subject, 40 mg ANAVEX 2-73 oral, 24 hr time point, read-out: plasma concentration of the labelled analyte; for Cmax: male
Method: as §1
Blood samples for ANAVEX 2-73 and metabolite ANAVEX 19-144 plasma concentration determination were drawn on Day 1 at time zero, T0, (before drug administration), T+0.25 h (15 min), T+0.5 h (30 min), T+1 h, T+1.5 h, T+2 h, T+3 h, T+3.5 h, T+4 h, T+6 h, T+8 h and T+12 h, on Day 2 at T+24 h and T+36 h, and on Day 3 at T+48 h.
The PK variables employed in the analysis were the patient-, regimen- and time-specific observed plasma concentration of ANAVEX 2-73 and ANAVEX 19-144.
The dataset comprised observed ANAVEX 2-73 and ANAVEX 19-144 plasma concentrations that were direct matches in time with QT interval measurements. The analysis variable of interest was the QT interval duration corrected for RR interval duration according to Fridericia's formula (i.e., QTcF), HR, and change from baseline QT interval duration corrected for RR interval duration according to Fridericia's formula (ΔQTcF or dQTcF). Baseline is defined as the mean of any and all values immediately obtained prior to ANAVEX 2-73 administration.

male healthy subjects [3] = assay: linear exposure-heart rate model (NONMEM); design: species or system human
Excerpt: as §2
Concentration-QTc modeling was performed with the software NONMEM v7.3 (Icon Development Solutions, Ellicott City, MD) and graphical analysis, diagnostics plots, and supporting analyses using S Plus v8.2 (TIBCO Software, Boston, MA) and the R package.
Further modeling characterizes the exposure-heart rate relationship. […] for the model were ANAVEX 2-73 and ANAVEX 19-144 concentrations, and time. The baseline heart rate was also estimated. The best model developed to explain the exposure-heart rate relationship included all three variables. Again, ANAVEX 2-73 concentration by itself was not initially biologically QT active, but became active as metabolized to A19-144 in the model. At about 4 to 8 hours post administration A19-144 peaks and surpasses A2-73 at about 8 hours post administration. […] The metabolism of A2-73 to A19-144 modifies this effect. […] It is important to note the upward and negative inflexions in the parent compound and the active metabolite in the final model, respectively, are not indicative of model misspecification but are due to the sensitivity of smoothing loess regression (red line in FIG. 17) to outlying observations in the y-axis. The final model is given below: HRij=56.5−0.106*Parent+0.369*Metabolite+0.153*Time where HRij is subject specific heart rate, Parent refers to ANAVEX 2-73, and Metabolite is for ANAVEX 19-144.
Observed and unlikely to be observed concentrations of the parent drug and metabolite are used to predict heart rate, given the parameter estimates obtained with the exposure-heart rate model developed. […] Thus, the heart rate upon treatment with ANAVEX 2-73 is predicted to be below 75 beats/min.

## CNCC1CCOC1(c1ccccc1)c1ccccc1.Cl (centres unmarked) [ANAVEX 19-144, 1-(2,2-diphenyltetrahydrofuran-3-yl)-N-methylmethanamine hydrochloride]
Male healthy subjects [1]
  anti-arrhythmic activity: anti-arrhythmic
  effect on dQTcF (exposure-dQTcF characterization): did not show any effect
  graphical relationship of paired concentrations with QTcF measurements: slight minimal upward trend from baseline followed by a slight negative trend
  relationship with ΔΔQTcF (placebo-adjusted change in QTcF): no relationship
[2]; hydrochloride
  plasma concentration of the labelled analyte: below the limit of detection; also recorded: not quantifiable
[2]; footnote a, after oral ANAVEX 2-73, hydrochloride
  ANAVEX 19-144 Concentration, observed Cmax from the QTc analysis dataset: 23.96 ^a ng/mL
[2]
  concentration at 24 h: 3.33 ng/mL
[2]; footnote a, after oral ANAVEX 2-73, read-out: ANAVEX 19-144 Concentration, observed Cmax from the QTc analysis dataset
  Cmax: 24 ng/mL
Male healthy subjects [3]
  Slope on metabolite, exposure-heart rate model estimate: 0.369 beats/min/ng/mL
  initial effects on heart rate: opposite initial effects on heart rate

## CN(C)CC1CCOC1(c1ccccc1)c1ccccc1.Cl (centres unmarked) [ANAVEX 2-73, 1-(2,2-diphenyltetrahydrofuran-3-yl)-N,N-dimethylmethanamine hydrochloride]
Male healthy subjects [1]
  QT interval prolongation: does not prolong QT interval
  effect on dQTcF (exposure-dQTcF characterization): did not show any effect
  graphical relationship of paired concentrations with QTcF measurements: minimal positive trend
  relationship with ΔΔQTcF (placebo-adjusted change in QTcF): no relationship
Male healthy subjects [1]; male, human
  dQTcF (change in QTcF from baseline), any subject: ≤ 30 ms
[2]
  plasma concentration of the labelled analyte: not quantifiable at most of the sampling times beyond two to four hours after dosing
  concentration at 24 h: 2.23 ng/mL
[2]; oral, footnote a, read-out: ANAVEX 2-73 Concentration, observed Cmax from the QTc analysis dataset
  Cmax: 46.2 ng/mL
Male healthy subjects [3]
  Slope on parent, exposure-heart rate model estimate: −0.106 beats/min/ng/mL
  initial effects on heart rate: opposite initial effects on heart rate

From patent publication US12138240B2, “Treatment of cardiac dysfunction” (priority 2017, dated 2024)
